In PMC4865847, “Putative histidine kinase inhibitors with antibacterial effect against multi-drug resistant clinical isolates identified by in vitro and in silico screens” (Scientific Reports, 2016):
In brackets after ≈: the same amount, converted by molar mass. Read-outs that look alike come from different tables or passages of the source.

Experiments:
Staphylococcus aureus = experiment: Antibacterial susceptibility testing (MIC/MBC), S. aureus; type: cell-based
Protocol: (§1) Minimal inhibitory concentrations (MICs) were determined following a standard double-dilution method. […] For S. pneumoniae MICs were determined by adapting the standard double-dilution method to anaerobic conditions and of this microorganism (use of Todd Hewitt Yeast extract with 200 U/mL of catalase and continuous monitoring of growth).

S. aureus PhoR (PhoR^S) [1] = molecular target: T1, S. aureus PhoR (PhoR^S) (Staphylococcus aureus, UniProt Q2FXN7); experiment: Aggregation analysis by native-PAGE, PhoR^S; settings: 2 mM (S5 and S6 5 mM), 10% DMSO
Protocol: E. coli PhoR and EnvZ, and S. aureus PhoR ([…], final concentration) were prepared in kinase buffer. […] DMSO in the assays was maintained to a final concentration 10% (v/v). After 30 min of incubation at room temperature Native polyacrylamide gel electrophoresis (Native-PAGE) loading buffer was added and samples loaded. Coomassie blue staining was used for protein visualization.

Acinetobacter baumannii = experiment: Antibacterial susceptibility testing (MIC), A. baumannii; type: cell-based
Protocol: (§2) Bacterial strains used in this study for antibacterial susceptibility testing (Table S5) were propagated using standard microbiological procedures. Minimal inhibitory concentrations (MICs) were determined following a standard double-dilution method. MICs were recorded as the lowest concentration of the compound where no visible growth was observed. After plating the dilutions around the MIC or growing them in fresh MH media, minimal bactericidal concentration (MBC) was recorded as the lowest concentration of the compound at which no colonies were formed or no growth was observed, respectively. For S. pneumoniae MICs were determined by adapting the standard double-dilution method to anaerobic conditions and of this microorganism (use of Todd Hewitt Yeast extract with 200 U/mL of catalase and continuous monitoring of growth).

Streptococcus pneumoniae = experiment: Antibacterial susceptibility testing (MIC), S. pneumoniae; type: cell-based; settings: strain 49619
Protocol: as §2

Hemolysis assay = type: cell-based; settings: human
Protocol: Hemolytic activity against human erythrocytes taken from a healthy donor was measured as previously described. The hemolysis experiments were carried out in accordance with the guidelines of the United Arab Emirates University (UAEU) Research Ethics Review Board. All experimental protocols were approved by the Research Ethics Review Board of UAEU and informed consent was obtained from all donors.

Streptococcus suis = experiment: Antibacterial susceptibility testing (MIC), S. suis; type: cell-based; settings: Streptococcus suis, read-out: MIC Streptococcus suis 3881/S10, strain 3881/S10
Protocol: as §2

E. coli PhoR (PhoR^E) = molecular target: T2, E. coli PhoR (PhoR^E) (Escherichia coli, UniProt P08400); experiment: In vitro autophosphorylation kinase assay with γ-32P-ATP, PhoR^E; type: biochemical
T2 construct: The catalytic portion (DHp and CA domain) of E. coli PhoR (PhoR^E); made in house; host or cells: E. coli RIL
In short: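 Autophosphorylation, initiated with γ-32P-ATP (0.1 μCi/μl; 0.03–0.06 μM ATP final), quenched with SDS/EDTA sample buffer, resolved by SDS-PAGE and quantified by phosphor-imaging. ≈4 μM kinase, fragments up to 20 mM, pH 8.5 Tris buffer with Mg2+; DMSO-matched ligand-free controls.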

[2] = test system: Staphylococcus epidermidis; experiment: Antibacterial susceptibility testing (MIC/MBC), S. epidermidis; type: cell-based
Protocol: as §1

S. aureus PhoR (PhoR^S) [3] = molecular target: T1, S. aureus PhoR (PhoR^S); experiment: In vitro autophosphorylation kinase assay with γ-32P-ATP, PhoR^S; type: biochemical
In short: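 ≈4 μM HK incubated with up to 20 mM fragment in 50 mM Tris HCl pH 8.5, 50 mM KCl, 5 mM MgCl2, 0.5 mM EDTA, 0.1 mM DTT; started with γ-32P-ATP (0.03–0.06 μM ATP final). Quenched with SDS sample buffer/EDTA, run on SDS-PAGE unheated, phosphoprotein quantified by phosphor-imaging.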

Klebsiella pneumoniae = experiment: Antibacterial susceptibility testing (MIC), K. pneumoniae; type: cell-based
Protocol: as §2

[4] = test system: Stenotrophomonas maltophilia; experiment: Antibacterial susceptibility testing (MIC), S. maltophilia; type: cell-based
Protocol: as §2

[5] = Solubility in kinase buffer; type: physicochemical; settings: kinase buffer in the presence of 10% DMSO

T1 sequence (Q2FXN7 entry or part of it): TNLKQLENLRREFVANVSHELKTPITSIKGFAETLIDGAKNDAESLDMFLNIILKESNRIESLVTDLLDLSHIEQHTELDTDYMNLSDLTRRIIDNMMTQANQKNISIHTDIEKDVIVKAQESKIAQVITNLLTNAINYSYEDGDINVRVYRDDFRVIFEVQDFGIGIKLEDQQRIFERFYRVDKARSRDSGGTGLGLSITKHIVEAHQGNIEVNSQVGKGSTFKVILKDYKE
T2 sequence (P08400 210-425): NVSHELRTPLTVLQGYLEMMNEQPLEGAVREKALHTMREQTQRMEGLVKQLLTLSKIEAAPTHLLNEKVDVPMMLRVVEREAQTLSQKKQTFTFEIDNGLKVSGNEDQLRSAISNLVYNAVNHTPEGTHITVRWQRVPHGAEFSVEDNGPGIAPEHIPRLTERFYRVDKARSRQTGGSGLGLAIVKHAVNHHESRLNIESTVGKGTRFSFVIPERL

CC[C@H](c1ccc(O)cc1)[C@@H](CC)c1ccc(F)cc1 [S1.13, 4-[(3S,4R)-4-(4-fluorophenyl)hexan-3-yl]phenol]
MIC (Staphylococcus aureus; Staphylococcus aureus, ATCC reference strain 25293, read-out: MIC S. aureus 25293): 8 µg/mL (≈ 29.4 µM)
MBC (Staphylococcus aureus; Staphylococcus aureus, DSM20231, strain DSM 20231, read-out: MBC S. aureus DSM 20231): 33 µg/mL (≈ 121 µM)
MIC (Staphylococcus aureus; Staphylococcus aureus, DSM20231, strain DSM 20231, read-out: MIC S. aureus DSM 20231): 8 µg/mL (≈ 29.4 µM)
MIC (Staphylococcus aureus; Staphylococcus aureus, MRSA clinical isolate 127/08, read-out: MIC S. aureus 127/08): 16 µg/mL (≈ 58.7 µM)
MIC (Staphylococcus aureus; Staphylococcus aureus, MRSA clinical isolate 145/08, read-out: MIC S. aureus 145/08): 8 µg/mL (≈ 29.4 µM)
MIC (Staphylococcus aureus; Staphylococcus aureus, MRSA clinical isolate 274/08, read-out: MIC S. aureus 274/08): 16 µg/mL (≈ 58.7 µM)
MIC (Staphylococcus aureus; Staphylococcus aureus, MRSA, MRSA clinical isolate S908, read-out: MIC S. aureus S908): 16 µg/mL (≈ 58.7 µM)
MIC (Staphylococcus aureus; Staphylococcus aureus, MRSA, MRSA clinical isolate T4/6, read-out: MIC S. aureus T4/6): 8 µg/mL (≈ 29.4 µM)
MIC (Staphylococcus aureus; Staphylococcus aureus, MRSA, MRSA clinical isolate V4180, read-out: MIC S. aureus V4180): 8 µg/mL (≈ 29.4 µM)
MIC (Staphylococcus aureus; Staphylococcus aureus, MRSA, summary over strains, read-out: MICs for the S. aureus reference strains and the MRSA strains): 8 to 16 µg/mL (≈ 29.4 to 58.7 µM)
MIC (Staphylococcus aureus; Staphylococcus aureus, MRSA, summary over susceptible MRSA clinical isolates, read-out: MICs for MRSA strains): 8 to 16 µg/mL (≈ 29.4 to 58.7 µM)
MBC S. aureus DSM 20231 (Staphylococcus aureus; strain DSM 20231): 31 µg/mL (≈ 114 µM)
MIC S. aureus DSM 20231 (Staphylococcus aureus; strain DSM 20231): 8^¥ μg/ml
bacteriostatic or bactericidal for S. aureus DSM 20231 (Staphylococcus aureus; strain DSM 20231): bactericidal
HK aggregation, PhoR^S (S. aureus PhoR (PhoR^S) [1]): do not cause HK aggregation
MIC (Acinetobacter baumannii; MDR clinical isolate NM8, read-out: MIC A. baumannii NM8): > 500 µg/mL
MIC (Acinetobacter baumannii; MDR clinical isolate NM35, read-out: MIC A. baumannii NM35): > 500 µg/mL
MIC (Acinetobacter baumannii; MDR clinical isolate NM75, read-out: MIC A. baumannii NM75): > 500 µg/mL
MIC (Acinetobacter baumannii; MDR clinical isolate NM109, read-out: MIC A. baumannii NM109): > 500 µg/mL
MIC (Acinetobacter baumannii; MDR clinical isolate NM124, read-out: MIC A. baumannii NM124): > 500 µg/mL
MIC (Streptococcus pneumoniae): 16 µg/mL (≈ 58.7 µM)
HC50 (Hemolysis assay): 277 µg/mL
MIC (Streptococcus suis): 8 µg/mL (≈ 29.4 µM)
inhibition at 2000 µM (E. coli PhoR (PhoR^E); 2 mM, 30 sec, compared to negative control): > 75%
IC50 (E. coli PhoR (PhoR^E); autophosphorylation, one time point (30 sec), 10% DMSO, read-out: IC50 PhoR^E): 16 µM
MBC ([2]; Staphylococcus epidermidis, DSM20044, strain DSM 20044): 8 µg/mL (≈ 29.4 µM)
MIC ([2]; Staphylococcus epidermidis, DSM20044, strain DSM 20044, read-out: MIC S. epidermidis DSM 20044): 1 µg/mL (≈ 3.67 µM)
MIC ([2]; Staphylococcus epidermidis, clinical isolate T7/3, read-out: MIC S. epidermidis T7/3): 8 µg/mL (≈ 29.4 µM)
MIC ([2]; Staphylococcus epidermidis, clinical isolate T37/8, read-out: MIC S. epidermidis T37/8): 16 µg/mL (≈ 58.7 µM)
MIC ([2]; Staphylococcus epidermidis, clinical isolate T6119, read-out: MIC S. epidermidis T6119): 8 µg/mL (≈ 29.4 µM)
MIC ([2]; Staphylococcus epidermidis, strain RP62A (biofilm producer), read-out: MIC S. epidermidis RP62A): 8 µg/mL (≈ 29.4 µM)
MIC ([2]; Staphylococcus epidermidis, strain RP62A/1 (non-biofilm producer), read-out: MIC S. epidermidis RP62A/1): 8 µg/mL (≈ 29.4 µM)
MIC ([2]; Staphylococcus epidermidis, summary over clinical isolates, read-out: MICs for S. epidermidis clinical isolates): 8 to 16 µg/mL (≈ 29.4 to 58.7 µM)
MIC S. epidermidis DSM 20044 ([2]; strain DSM 20044): 1^¥ μg/ml
bacteriostatic or bactericidal for S. epidermidis DSM 20044 ([2]; strain DSM 20044): bactericidal
IC50 (S. aureus PhoR (PhoR^S) [3]; IC50 PhoR^S, autophosphorylation, one time point (30 sec), 10% DMSO): 212 µM
inhibition at 2000 µM (S. aureus PhoR (PhoR^S) [3]; read-out: inhibition of PhoR^S autophosphorylation): > 75%
MIC (Klebsiella pneumoniae; Klebsiella pneumoniae, ATCC700603, strain ATCC 700603): > 500 µg/mL
MIC K. pneumoniae ATCC700603 (Klebsiella pneumoniae; strain ATCC 700603): >500 µg/mL
MIC ([4]; clinical isolate B5/5, read-out: MIC S. maltophilia B5/5): > 500 µg/mL
MIC ([4]; clinical isolate B6/2, read-out: MIC S. maltophilia B6/2): > 500 µg/mL
MIC ([4]; clinical isolate B32/1, read-out: MIC S. maltophilia B32/1): > 500 µg/mL
solubility in kinase buffer [5]: good solubility
